From patent US20230416329A1, “A PEPTIDE WITH DISULFIDE BONDS AND INHIBITORY ACTIVITY AGAINST SERINE PROTEASES, DERIVED HYBRID PEPTIDES THEREOF, AND USES THEREOF” (INSTITUTE OF MATERIA MEDICA , CHINESE ACADEMY OF MEDICAL …, priority 2020, published 2023) come the findings set out here.

Bridge positions count the residues as written; N and C are the ends. Ends that are not written are not given here.

Data set [1] concerns the target T1, interaction of PCSK9-LDLR (Homo sapiens, UniProt Q8NBP7).
T1 construct: purchased MBL Company, Beijing, China CY-8150
The data set is described as follows: PCSK9-LDLR in vitro binding assay (inhibitory rate). As to conditions: for inhibitory activity on the interaction between PCSK9 and LDLR (in words): in vitro. As for the experimental part: Polypeptide PCSK9_1-14 (SEQ ID NOs: 210-223) is dissolved in pure water or DMSO. 85 μL reaction buffer, 5 μL 1 mM polypeptide sample and 10 μL 750 ng/mL PCSK9 protein was pre-incubated at room temperature for 20 minutes before being added to a 96 well plate. The OD450/540 nm value was measured according to the instructions of the PCSK9-LDLR in Vitro Binding Assay Kit (CY-8150, MBL Company, Beijing, China). Solvent control: replace polypeptide with 5 μL solvent. In 100 μL reaction system, the final concentration of the polypeptide and PCSK9 is 50 μM and 75 ng/mL, respectively.
Inhibition rate of polypeptide (%)=(OD450/540 nm(solvent control)−OD450/540 nm (sample))/OD450/540 nm(solvent control)×100

Data set [2] deals with P407-induced hyperlipidemia mice. In words: Subcutaneous injection of PCSK9 inhibitory peptide, serum total cholesterol in P407-induced hyperlipidemia mice. To be noted: for TC 15 min / TC 30 min / TC 60 min / TC 90 min / TC 120 min: serum, subcutaneous 2 μmol/kg, mean ± sd; for TC 15 min: 15 min after administration; for TC 30 min: 30 min after administration; for TC 60 min: 60 min after administration; for TC 90 min: 90 min after administration; for serum total cholesterol (TC) level after subcutaneous injection (in words): 2 μmol/kg single s.c., P407-induced hyperlipidemia mice; for TC 120 min: 120 min after administration. The class given is in vivo, mouse. The method, then:
The experimental peptide sample was prepared using PEG400 with a final concentration of […], and the final concentration of PEG400 is 20% (w/v). Normal ICR mice were fasted overnight with water ad libitum. The next day, all of the mice were randomly divided into model control group (Con) and polypeptide administration group (2 μmol/kg) according to body weight. Then, all of the mice were intraperitoneally injected with P407 (500 mg/kg) and fed with feed 2 hours later. Six mice were taken as a normal control group (Nor). After 24 hours, the mice in Con were subcutaneously injected with saline containing 20% PEG400, and the mice in the treatment group were given peptides. Then, the blood was taken at different time points after administration to determine the serum total cholesterol (TC) level. In consideration of the complexity of factors affecting serum LDL-C levels, especially the differences between single and long-term administration, the in vivo activity of PCSK9 inhibitory peptide is mainly observed for changes in serum TC levels.

The target in the next data set is NEP24.11 (Homo sapiens, UniProt P08473). In words: Tolerance of GLP-1 and its analogues to NEP24.11 (RP-HPLC remaining peak area). The class given is in vitro ADME. As to conditions: after 8 hours. The method, then:
(§1) Mix by centrifugation at 8000 rpm for 30 seconds.
Arrange a certain volume of 0.04 μg/μL NEP24.11 enzyme solution in another sterile EP.

For another data set, the target named is chymotrypsin (Bos taurus, UniProt P00766). In words: Stability of hybrid peptides (GLP-1, PCSK9, calcitonin, 17A analogues) against chymotrypsin hydrolysis (RP-HPLC remaining peak area). The essentials: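 RP-HPLC peak area tracked intact peptide after 37 °C digestion with chymotrypsin (0.05 μg/μL solution, 5 min preincubation). Samples were withdrawn at 1.5-60.0 min and stopped with 10% TFA.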

For the next data set, the target named is elastase (Sus scrofa, UniProt P00772). The data set is described as follows: Stability of hybrid peptides (GLP-1, PCSK9, calcitonin, 17A analogues) against elastase hydrolysis (RP-HPLC remaining peak area). To be noted: 30.0 min; peptide 60 μM, elastase 10 ng/μL, 37° C. As for the experimental part: FIG. 19. […] At different time point, 25 μL aliquots was taken out, and 10% (v/v) TFA was added to terminate the reaction.
as §1
Arrange a certain volume of 0.5 μg/μL elastase solution in another sterile EP. Incubate the EP tubes containing peptides and enzymes at 37° C. for 5 min, and then add 4.5 μL of elastase solution to each EP tube containing peptides and mix well. Start timing and remove 25 μL of reaction solution at 1.5, 3.0, 4.5, 6.0, 9.0, 15.0, 30.0, and 60.0 min later, respectively. Add 3.75 μL of 10% TFA to terminate the reaction and mix well by centrifugation at 8000 rpm for 30 seconds.
Referring to the experimental method in Example 5, in vitro stability of salmon Calcitonin analogs with oral administration activity to the enzymatic hydrolysis by trypsin, chymotrypsin and elastase were performed.
Referring to the experimental method in Example 5, in vitro stability of IL-17A inhibitory peptides towards the enzymatic hydrolysis by trypsin, chymotrypsin and elastase were performed.

NEP24.11, sequence (P08473 whole entry): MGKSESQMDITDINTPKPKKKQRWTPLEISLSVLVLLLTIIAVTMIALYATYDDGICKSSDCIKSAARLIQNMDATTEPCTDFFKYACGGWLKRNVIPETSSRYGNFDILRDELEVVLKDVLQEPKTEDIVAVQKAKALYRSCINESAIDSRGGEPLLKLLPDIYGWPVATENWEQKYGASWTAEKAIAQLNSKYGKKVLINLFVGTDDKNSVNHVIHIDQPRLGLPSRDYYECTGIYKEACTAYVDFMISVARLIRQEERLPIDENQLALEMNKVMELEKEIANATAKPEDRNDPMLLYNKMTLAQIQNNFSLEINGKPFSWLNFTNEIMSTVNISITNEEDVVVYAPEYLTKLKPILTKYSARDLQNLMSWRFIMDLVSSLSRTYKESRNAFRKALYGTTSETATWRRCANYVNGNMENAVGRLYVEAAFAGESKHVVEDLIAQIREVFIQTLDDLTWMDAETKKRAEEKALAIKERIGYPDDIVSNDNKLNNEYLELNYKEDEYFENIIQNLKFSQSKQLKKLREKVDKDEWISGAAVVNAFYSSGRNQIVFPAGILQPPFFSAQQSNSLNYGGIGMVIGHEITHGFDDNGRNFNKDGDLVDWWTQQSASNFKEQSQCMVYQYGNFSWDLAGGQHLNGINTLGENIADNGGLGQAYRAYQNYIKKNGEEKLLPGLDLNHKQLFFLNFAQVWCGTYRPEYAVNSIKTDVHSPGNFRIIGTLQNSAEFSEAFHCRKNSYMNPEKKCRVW
elastase, sequence (P00772 27-266): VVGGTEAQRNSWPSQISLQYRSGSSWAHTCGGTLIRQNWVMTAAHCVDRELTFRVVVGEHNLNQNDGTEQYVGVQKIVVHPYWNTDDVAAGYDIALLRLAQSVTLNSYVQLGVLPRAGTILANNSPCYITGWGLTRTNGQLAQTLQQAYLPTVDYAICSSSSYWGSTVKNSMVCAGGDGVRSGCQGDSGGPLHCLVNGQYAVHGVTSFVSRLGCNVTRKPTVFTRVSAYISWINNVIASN

On to “Thr-Val-Phe-Thr-Ser-Trp-Glu-Glu-Ala-Leu-Asp-Trp-Val-Gly-Phe-Cys-Thr-Tyr-Ser-Ile-Pro-Pro-Gln-Cys-Tyr-Gly (TVFTSWEEALDWVGFCTYSIPPQCYG-OH; disulfide 16-24 (inferred)) [PCSK9_2CH]”, for which, in data set [1], the “inhibitory activity on the interaction between PCSK9 and LDLR (in words)” value (shortened to “inhibitory activity”) was “good inhibitory activity on the interaction between PCSK9 and LDLR”. Further, in data set [1] (listed as SEQ ID NO: 224), the “inhibitory activity” value is recorded as “good inhibitory effects in vitro”. For the same compound, in data set [2], the “TC 15 min” value was 2772 ± 762 µg/mL, the “TC 30 min” value was 2586 ± 700 µg/mL, the “TC 60 min” value was determined as 2737 ± 762 µg/mL and the “TC 90 min” value was 2489 ± 760 µg/mL.
For “PCSK9_13: Pep2-8 analogue of Table 23 (GTNEALDNNCGRATKSIPPICFTVFTS; disulfide 10-21 (inferred))”, in data set [1] (sample 50 μM, PCSK9 75 ng/mL), the “Inhibitory rate on the interaction of PCSK9-LDLR” value was 15.8 ± 10.1%.
As for “Thr-Val-Phe-Thr-Ser-Gly-Arg-Cys-Thr-Lys-Ser-Ile-Pro-Pro-Ile-Cys-Phe-Trp-Glu-Glu-Tyr-Leu-Asp-Trp-Val (TVFTSGRCTKSIPPICFWEEYLDWV; disulfide 8-16 (inferred)) [PCSK9_9]”, the “inhibitory activity” value in data set [1] was “good inhibitory activity on the interaction between PCSK9 and LDLR”. The “inhibitory activity” value in data set [1] (listed as SEQ ID NO: 218) is “good inhibitory effects in vitro”. Moreover, in data set [2], the “serum total cholesterol (TC) level after subcutaneous injection (in words)” value (“serum total cholesterol (TC) level” for short) was “reduced serum TC level”, the “TC 30 min” value came to 3143 ± 842 µg/mL, the “TC 60 min” value was 3516 ± 914 µg/mL and the “TC 90 min” value came to 3409 ± 970 µg/mL. In addition, the “TC 120 min” value in data set [2] was 327.4 ± 90.4 mg/dL. Further, in data set [2] (listed as SEQ ID NO: 218), the “serum total cholesterol (TC) level” value is on record as “excellent lowering lipid (total cholesterol) activities in vivo”.
Take “Thr-Val-Phe-Thr-Ser-Gly-Cys-Gly-Arg-Ala-Thr-Lys-Ser-Ile-Pro-Pro-Ile-Cys-Phe-Trp-Glu-Glu-Tyr-Leu-Asp-Trp-Val (TVFTSGCGRATKSIPPICFWEEYLDWV; disulfide 7-18 (inferred)) [PCSK9_7]”: the “inhibitory activity” value in data set [1] is “good inhibitory activity on the interaction between PCSK9 and LDLR”. Moreover, the “inhibitory activity” value in data set [1] (listed as SEQ ID NO: 216) was “good inhibitory effects in vitro”. In data set [2], the “TC 30 min” value amounted to 3398 ± 990 µg/mL, the “TC 60 min” value came out at 3618 ± 954 µg/mL, the “TC 90 min” value turned out to be 3461 ± 937 µg/mL and the “TC 120 min” value was 337.6 ± 95.8 mg/dL.
Turning to “Phe-Cys-Thr-Tyr-Ser-Ile-Pro-Pro-Gln-Cys-Tyr-Gly-Gly-Thr-Val-Phe-Thr-Ser-Trp-Glu-Glu-Ala-Leu-Asp-Trp-Val (FCTYSIPPQCYGGTVFTSWEEALDWV; disulfide 2-10 (inferred)) [PCSK9_3CH]”, the “inhibitory activity” value in data set [1] is “good inhibitory activity on the interaction between PCSK9 and LDLR”. Also, the “inhibitory activity” value in data set [1] (listed as SEQ ID NO: 226) was “good inhibitory effects in vitro”. In data set [2], the “TC 15 min” value was 3509 ± 1031 µg/mL, the “TC 30 min” value is 3828 ± 774 µg/mL, the “TC 60 min” value came out at 3930 ± 1509 µg/mL and the “TC 90 min” value amounted to 3435 ± 838 µg/mL.
Consider “Trp-Glu-Glu-Ala-Leu-Asp-Trp-Val-Gly-Ile-Cys-Thr-Ala-Ser-Ile-Pro-Pro-Ile-Cys-Gln-Gly-Thr-Val-Phe-Thr-Ser (WEEALDWVGICTASIPPICQGTVFTS; disulfide 11-19 (inferred)) [PCSK9_5EC]”, for which the “inhibitory activity” value in data set [1] was “good inhibitory activity on the interaction between PCSK9 and LDLR”. Further, the “inhibitory activity” value in data set [1] (listed as SEQ ID NO: 229) is given as “good inhibitory effects in vitro”. Also, in data set [2], the “serum total cholesterol (TC) level” value is reported as “reduced serum TC level”, the “TC 15 min” value was 2669 ± 520 µg/mL, the “TC 30 min” value was determined as 2231 ± 795 µg/mL and the “TC 60 min” value stood at 2577 ± 466 µg/mL. The “TC 90 min” value in data set [2] turned out to be 2532 ± 425 µg/mL. Besides, the “serum total cholesterol (TC) level” value in data set [2] (listed as SEQ ID NO: 229) is on record as “excellent lowering lipid (total cholesterol) activities in vivo”.
Turning to “ICTASIPPICQGTVFTSWEEALDWV (cysteine pairing not given here)”, the “inhibitory activity” value in data set [1] is “good inhibitory activity on the interaction between PCSK9 and LDLR”. The “inhibitory activity” value in data set [1] (listed as SEQ ID NO: 227) is reported as “good inhibitory effects in vitro”. Besides, in data set [2], the “TC 15 min” value stood at 2885 ± 769 µg/mL, the “TC 30 min” value is 2673 ± 724 µg/mL, the “TC 60 min” value turned out to be 2695 ± 699 µg/mL and the “TC 90 min” value was 2605 ± 759 µg/mL.
For the compound “Thr-Val-Phe-Thr-Ser-Trp-Glu-Glu-Ala-Leu-Asp-Trp-Val-Gly-Ile-Cys-Thr-Ala-Ser-Ile-Pro-Pro-Ile-Cys-Gln (TVFTSWEEALDWVGICTASIPPICQ-OH; disulfide 16-24 (inferred)) [PCSK9_2EC]”, the “inhibitory activity” value in data set [1] is “good inhibitory activity on the interaction between PCSK9 and LDLR”. The “inhibitory activity” value in data set [1] (listed as SEQ ID NO: 225) is given as “good inhibitory effects in vitro”. Besides, in data set [2], the “TC 15 min” value turned out to be 2954 ± 455 µg/mL, the “TC 30 min” value is 2859 ± 535 µg/mL, the “TC 60 min” value turned out to be 2853 ± 487 µg/mL and the “TC 90 min” value is 2757 ± 475 µg/mL.
As for “CGRATKSIPPICFGTVFTSWEEALDWV (cysteine pairing not given here)”, the “inhibitory activity” value in data set [1] was “good inhibitory activity on the interaction between PCSK9 and LDLR”. Further, the “inhibitory activity” value in data set [1] (listed as SEQ ID NO: 212) is given as “good inhibitory effects in vitro”. In data set [2], the “TC 15 min” value was 3466 ± 662 µg/mL, the “TC 30 min” value worked out at 3490 ± 741 µg/mL, the “TC 60 min” value was 3294 ± 649 µg/mL and the “TC 90 min” value is 3265 ± 678 µg/mL.
Take `CC[C@H](C)[C@H](NC(=O)[C@H](Cc1ccccc1)NC(=O)[C@H](CCC(=O)O)NC(=O)[C@H](CCCCN)NC(=O)[C@H](C)NC(=O)[C@H](C)NC(=O)[C@H](CCC(N)=O)NC(=O)CNC(=O)[C@H](CCC(=O)O)NC(=O)[C@H](CC(C)C)NC(=O)[C@H](Cc1ccc(O)cc1)NC(=O)[C@H](CO)NC(=O)[C@H](CO)NC(=O)[C@@H](NC(=O)[C@H](CC(=O)O)NC(=O)[C@H](CO)NC(=O)[C@@H](NC(=O)[C@H](Cc1ccccc1)NC(=O)[C@@H](NC(=O)CNC(=O)[C@H](CCC(=O)O)NC(=O)[C@H](C)NC(=O)[C@@H](N)Cc1c[nH]cn1)[C@@H](C)O)[C@@H](C)O)C(C)C)C(=O)N[C@@H](C)C(=O)N[C@@H](Cc1c[nH]c2ccccc12)C(=O)N[C@@H](CC(C)C)C(=O)N[C@H](C(=O)N[C@@H](CCCCN)C(=O)NCC(=O)N[C@@H](CCCN=C(N)N)C(=O)NCC(=O)O)C(C)C` [GLP-1 (7-37), reference compound]: the “degradation by NEP24.11 (in words)” value at NEP24.11 is listed as “almost completely degraded”. Besides, the “stability towards chymotrypsin hydrolysis (in words)” value on chymotrypsin is recorded as “completely degraded”. Besides, at elastase, the “Remaining peak area (%)/elastase” value is listed as “no GLP-1 prototype molecule was detected”.
